Consider 30 compounds from ChEMBL document CHEMBL5030551, “Identification of Plasmodium falciparum falcilysin inhibitors by a virtual screen” (Bioorg Med Chem Lett, 2021).

What is called EC50 is the midpoint of the concentration-response curve. By IC50 is commonly meant the concentration needed to halve the response being measured.

For one assay, the system named is Plasmodium falciparum. Kind of assay: Antiplasmodial activity against Plasmodium falciparum 3D7 infected in human red blood cells assessed as reduction in parasitemia measured after 70 to 80 hrs by SYBR Green dye based assay. In kind it is functional, organism-based, RBC. The following applies: 3D7, Erythrocyte.
Assay [1] can be described thus: Inhibition of recombinant Plasmodium falciparum FLN expressed in Escherichia coli BL21 using Dabcyl-HKRHSFRMRG-EDANS as substrate incubated for 10 mins by fluorecence assay.

Take `O=C1Oc2ccccc2C(=O)Oc2ccccc2C(=O)Oc2ccccc2C(=O)Oc2ccccc21`: in the assay on Plasmodium falciparum, the concentration for a half-maximal effect (EC50) is above 25 µM. Also, the IC50 in assay [1] is above 25 µM.

On to `Cc1nn(-c2cccc(C(=O)N3CCN(C)C(=O)C3)c2)c(=O)c2ccccc12`, for which the EC50 in the assay with Plasmodium falciparum was above 25 µM. Besides, in assay [1], the IC50 is above 25 µM.

As to `CC(=O)n1cc([C@H]2CC(=O)OC3=C2C(=O)c2ccccc23)c2ccccc21`, the EC50 in the assay on Plasmodium falciparum is above 25 µM. The IC50 in assay [1] is 11 µM.

`Cc1cccc(NC(=O)Cn2c(C)cc(=O)n3nc(-c4cccc(C)c4)nc23)c1`: the EC50 with Plasmodium falciparum is above 25 µM. The IC50 in assay [1] is above 25 µM.

Take `Cc1ccc(N2C[C@@H](c3nc(-c4ccc5oc(C)nc5c4)no3)CC2=O)cc1`: the EC50 in the assay on Plasmodium falciparum is above 25 µM. Also, the IC50 in assay [1] was above 25 µM.

As for `CC1=C(C(=O)Nc2ccccc2C)[C@H](c2ccc3c(c2)OCO3)n2ncnc2N1`, the EC50 with Plasmodium falciparum was above 25 µM. The IC50 in assay [1] was above 25 µM.

With `C[C@@H]1Cc2cc(-c3cc(CC(=O)N=c4[nH]c5ccccc5[nH]4)no3)ccc2O1`, in the assay with Plasmodium falciparum, the EC50 is above 25 µM. Also, the IC50 in assay [1] is above 25 µM.

For `O=c1cc(CN2CCc3n[nH]c(-c4cccc5ccccc45)c3C2)[nH]c(=O)[nH]1`, in the assay on Plasmodium falciparum, the EC50 was above 25 µM. For the same compound, the half-maximal inhibitory concentration (IC50) in assay [1] is above 25 µM.

Turning to `O=C1/C(=c2/c3ccccc3n3c(=O)c4ccccc4nc23)Nc2ccccc21`, the EC50 with Plasmodium falciparum was 5.1 µM. Moreover, the IC50 in assay [1] was above 25 µM.

For the compound `O=c1/c(=C/c2ccc(/C=c3\sc4nc5ccccc5n4c3=O)cc2)sc2nc3ccccc3n12`, in the assay on Plasmodium falciparum, the EC50 is above 25 µM. The IC50 in assay [1] is above 25 µM.

Turning to `Cc1ccc(-c2nc3cccnc3n2CCNC(=O)Nc2ccccc2F)cc1`, the half-maximal effective concentration (EC50) in the assay on Plasmodium falciparum was above 25 µM. Moreover, the IC50 in assay [1] was above 25 µM.

As for `Cc1nc2ccccc2c(=O)n1Cc1noc(-c2cc3ccccc3oc2=O)n1`, in the assay with Plasmodium falciparum, the EC50 is above 25 µM. In addition, the IC50 in assay [1] was above 25 µM.

On to `Cc1ccc(-c2noc(CSc3nc(O)cc(-c4ccccc4)n3)n2)cc1C`, for which, in the assay with Plasmodium falciparum, the EC50 is above 25 µM. Moreover, the concentration for half-maximal inhibition (IC50) in assay [1] is above 25 µM.

For `Cc1cccc(-c2nc3c4ccccc4nc(NCCc4ccccc4)n3n2)c1`, the EC50 in the assay with Plasmodium falciparum came out at 5.3 µM. For the same compound, the IC50 in assay [1] was above 25 µM.

Turning to `O=C1c2ccc3c(c2CC12Cc1ccc4c(c1C2=O)CCCC4)CCCC3` (stereo not given), in the assay on Plasmodium falciparum, the EC50 is above 25 µM. Also, the IC50 in assay [1] was above 25 µM.

Regarding `O=C(Nc1ccc(Cl)cc1)Nc1nnc2nc(CC(=O)c3ccc4ccccc4c3)c(=O)[nH]n12`, the EC50 with Plasmodium falciparum was 12 µM. Further, the IC50 in assay [1] was 19 µM.

Turning to `O=C(NN1C(=O)c2cccc3cccc(c23)C1=O)NN1C(=O)c2cccc3cccc(c23)C1=O`, the EC50 with Plasmodium falciparum is above 25 µM. Further, the IC50 in assay [1] was above 25 µM.

`c1cnc2c(c1)CN(c1nc(-c3c[nH]c4ccccc34)nc3c1CNC3)CC2`: the EC50 in the assay with Plasmodium falciparum stood at 4.4 µM. Moreover, the IC50 in assay [1] was 21 µM.

As to `O=C(Cn1cc(-c2nnc(-c3ccccc3)o2)c2ccccc21)Nc1ccccc1`, the EC50 with Plasmodium falciparum was above 25 µM. In addition, the IC50 in assay [1] is 12 µM.

Take `Cc1cc2cc(CCNC(=O)c3ccc4ccccc4c3)c(=O)[nH]c2cc1C`: in the assay with Plasmodium falciparum, the half-maximal effective concentration (EC50) was 5.5 µM. For the same compound, the IC50 in assay [1] is above 25 µM.

Consider `CN1CCC2(CC1)Oc1ccccc1[C@H]1CC(c3cccc4ccccc34)=NN12`, for which the EC50 in the assay on Plasmodium falciparum amounted to 3.8 µM. Besides, the IC50 in assay [1] is above 25 µM.

Turning to `C[C@@H](c1cc(=O)[nH]c(N[C@H]2CCc3ccccc32)n1)n1ncc2ccccc2c1=O`, the EC50 with Plasmodium falciparum was above 25 µM. The IC50 in assay [1] was above 25 µM.

For the compound `O=C(c1cc(-c2cccc3cccnc23)cc(-n2cnnn2)c1)N1CCCCC1`, the EC50 with Plasmodium falciparum is above 25 µM. Moreover, the IC50 in assay [1] is above 25 µM.

As for `Cn1nc(C(=O)NCc2ccccc2)c2c1CCN(Cc1cc3ccccc3[nH]1)C2`, the concentration for a half-maximal effect (EC50) in the assay on Plasmodium falciparum came out at 3.8 µM. The IC50 in assay [1] is above 25 µM.

Consider `C[C@H]1CCc2[nH]c3ccc(C(=O)NC[C@H]4COc5ccccc5O4)cc3c2C1`, for which the EC50 in the assay with Plasmodium falciparum amounted to 9.1 µM. The IC50 in assay [1] was above 25 µM.

Regarding `O=C1NC(=O)C(c2ccccc2)(c2ccccc2)[C@@H]2C[C@@H]3c4[nH]c5ccccc5c4CCN3C[C@H]12`, the EC50 in the assay on Plasmodium falciparum is 1.7 µM. Moreover, the IC50 in assay [1] worked out at 12 µM.

For `Cc1c(C(=O)NCCc2nc3ccccc3[nH]2)oc2c1ccc1ccccc12`, in the assay with Plasmodium falciparum, the EC50 stood at 3 µM. Moreover, the IC50 in assay [1] is above 25 µM.

With `Nc1c(C(=O)Nc2ccc3c(c2)C(=O)c2ccccc2C3=O)ccc2c1C(=O)c1ccccc1C2=O`, the EC50 in the assay with Plasmodium falciparum was above 25 µM. In assay [1], the IC50 turned out to be 1.76 µM.

Consider `O=C(c1ccc2c3c(cccc13)CC2)[C@H]1CCCN(Cc2cc(=O)[nH]c(=O)[nH]2)C1`, for which, in the assay with Plasmodium falciparum, the EC50 is above 25 µM. The IC50 in assay [1] was above 25 µM.

On to `O=C(Nc1nc2ccccc2[nH]1)c1cc(-c2ccccn2)nc2ccccc12`, for which, in the assay on Plasmodium falciparum, the EC50 turned out to be 14.9 µM. Besides, the IC50 in assay [1] was above 25 µM.
